Results published in patent publication US20090035292A1, “Use of phosphatases to treat neuroblastomas and medulloblastomas” (priority 2007, published 2009).
Entries after “also recorded” stand apart in the source; their conditions may differ. Where two headings read alike, the source gives them in different places.

Key:
[1] = test system: neuroblastoma cell line, SH-SY5Y; assay: Proliferation of neuroblastoma cell line SH-SY5Y in vitro; type: cell-based, human
Protocol: FIG. 1. […] The neuroblastoma cell line, SH-SY5Y, was exposed to Compound 100 for 4 or 7 days at concentrations of 1 μM (squares), 5 μM (triangles), 10 μM (short dashed line), 20 μM (diamonds), 50 μM (long dashed line) or vehicle only (circles).
FIG. 2. […] The neuroblastoma cell line, SH-SY5Y, was exposed to 5 μM Compound 100 (squares), 25 μM ATRA (circles), the combination of 5 μM Compound 100 and 25 μM ATRA (dashed line) or vehicle only (black line) for 4 or 7 days. […]
The human neuroblastoma cell line SH-SY5Y is available from the European Collection of Cell Cultures, Health Protection Agency, Porton Down SP40JG Salisbury, Wiltshire UK, as ECACC No. 94030304.
The neuroblastoma cell line, SHSY5Y, was exposed to the cantharidin analog Compound 100 for 4 or 7 days at concentrations of 1, 5, 10, 20 and 50 μM.
Subsequently, SH-SY5Y cells were exposed to Compound 100 at a concentration of 5 μM, ATRA at 25 μM or the combination of the two drugs at the aforementioned doses for 4 or 7 days. […]

[2] = test system: medulloblastoma cell line, DAOY; assay: Proliferation of medulloblastoma cell line DAOY in vitro; type: cell-based, human
Protocol: FIG. 4. […] The medulloblastoma cell line, DAOY, was exposed to 20 μM Compound 100 (squares), 5 μM Compound 100 (triangles), 1 μM Compound 100 (x's) or vehicle only (diamonds) for 3 days.
FIG. 5. […] The medulloblastoma cell line, DAOY, was exposed to 50 μM ATRA (squares), 20 μM ATRA (triangles), 5 μM ATRA (X's) or vehicle only (diamonds) for 3 days.
FIG. 6. […] The medulloblastoma cell line, DAOY, was exposed to 2 mM valproic acid (squares), 1 mM valproic acid (triangles), 0.5 mM valproic acid (X's) or vehicle only (diamonds) for 3 days.
The human medulloblastoma cell line DAOY is available from the American Type Culture Collection (ATCC), P.O. Box 1549, Manassas, Va., 20108, as ATCC No. HTB-186.
The medulloblastoma cell line, DAOY, was exposed to the cantharidin analog, Compound 100 at concentrations of 1 μM, 5 μM and 20 μM and evaluated for cellular proliferation over the course of three days. […] Therefore, Compound 100 even at low concentration is capable of preventing cellular proliferation.
To confirm these observations, cultured DAOY cells were treated with 50 μM, 20 μM, 5 μM or vehicle only for three days and examined for cellular proliferation. […] Consequently, because it has been determined that proliferation of medulloblastoma cells is inhibited by Compound 100, ATRA and valproic acid as single agent, it is reasonable to expect that the combination of compound 100 with each of these compounds or a regimen of all three agents may be effective in the treatment of medulloblastoma.
The medulloblastoma cell line, DAOY, was exposed to the HDAC inhibitor, Compound 205 at 10 μM, ATRA at 50 μM, and the compound 205 at 10 μM combined with ATRA at 50 μM, and evaluated for cellular proliferation over the course of seven days. […] (FIG. 8) Therefore, we have shown that Compound 205 is active against medulloblastoma cell line DAOY.

[3] = test system: medulloblastoma cell line, DAOY; conditions: cited from earlier work
neuroblastoma = conditions: given for 6 months to high risk patients after chemotherapeutic, surgical and radiation treatments (Matthay et al., 1999); cited from earlier work
[4] = test system: neuroblastoma cell line SHSY xenograft; assay: SHSY xenograft in SCID mice; type: in vivo; conditions: measured day 7 and day 14, vs vehicle (FIG. 9)
Protocol: (§1) SHSY cells (5 million) were implanted subcutaneously in the flank of SCID mice. After the xenografts reached a size of ˜100 cubic mm, treatment was instituted with vehicle alone (control), compound 100 (1.5 mg/kg) or compound 205 (10 mg/kg) daily intraperitoneally for 14 days. Xenograft masses were measured day 7 and day 14 of treatment.
as §1, with “Compound” for “compound”

[5] = test system: medulloblastoma cell line DAOY xenograft tumors; assay: DAOY xenograft tumors in SCID mice; type: in vivo; conditions: 1.5 mg/kg daily intraperitoneally for 21 days, measured at days 7, 14 and 21 of treatment, vs vehicle (FIG. 7)
Protocol: DAOY cells (5 million) were implanted subcutaneously in the flank of SCID mice (Day 0). After the xenografts reached a size of ˜130 cubic mm, treatment was instituted with vehicle alone (control), compound 100 (1.5 mg/kg), or compound 102 (1.5 mg/kg) daily intraperitoneally for 21 days (beginning at day 7). Xenograft masses were measured at days 7, 14 and 21 of treatment.

[6] = test system: neuroblastoma cell line, SH-SY5Y; conditions: cited from earlier work
[7] = test system: human glioblastoma multiforme; conditions: cited from earlier work
[8] = compound 205 at 10 μM combined with ATRA at 50 μM, seven days (FIG. 8)

CCCC(CCC)C(=O)O [valproic acid, reference compound]
proliferation ([1]; 2.5 mM valproic acid alone (FIG. 3)): proliferation was greatly reduced | inhibition of proliferation ([1]; 2.5 mM valproic acid and 10 μM ATRA (FIG. 3)): exhibited inhibition of proliferation | inhibition of proliferation ([2]; valproic acid at 2 mM, 1 mM or 0.5 mM, three days (FIG. 6)): inhibits proliferation of medulloblastoma cells; also recorded: inhibition of proliferation | cell proliferation ([3]; 0.6 mmol/L valproic acid, 21 days (Li, et al., 2005)): suppressed cell proliferation | cell proliferation ([3]; 1 mmol/L valproic acid, 10 days (Li, et al., 2005)): suppressed cell proliferation

CC1=C(/C=C/C(C)=C/C=C/C(C)=C\C(=O)O)C(C)(C)CCC1 [13-cis-retinoic acid]
survival (neuroblastoma): survival is improved significantly

O=C(CCCCCNC(=O)c1ccccc1S)Nc1cccnc1 [Compound 205]
proliferation of xenograft (xenograft mass) ([4]; Compound 205 10 mg/kg daily intraperitoneally for 14 days, 10 mg/kg): inhibits the proliferation of the neuroblastoma cell line SHSY xenograft | rate of cellular proliferation ([2]; Compound 205 at 10 μM alone, seven days, vs vehicle (FIG. 8)): decreased rates of cellular proliferation as compared to the control; also recorded: inhibits proliferation of the medulloblastoma cell line DAOY | rate of cellular proliferation [2, 8]: inhibits proliferation of the medulloblastoma cell line DAOY | synergy in combination [2, 8]: synergistically active | rate of cellular proliferation ([2]; compound 205 at 10 μM combined with ATRA at 50 μM, seven days (FIG. 8), listed as compound 205): marked decrease in the rate of cellular proliferation

CC(C)(C)OC(=O)N1CCN(C(=O)C2C(C(=O)O)[C@H]3CC[C@@H]2O3)CC1 (stereo partly shown) [Compound 102]
proliferation of xenograft (xenograft mass) [5]: inhibits the proliferation of the medulloblastoma cell line DAOY xenograft tumors; also recorded: inhibit the proliferation of DAOY cells

CC1=C(/C=C/C(C)=C/C=C/C(C)=C/C(=O)O)C(C)(C)CCC1 [ATRA, all-trans retinoic acid, reference compound]
proliferation ([1]; 10 μM ATRA alone, day 4 (FIG. 3)): did not prevent proliferation | inhibition of cellular proliferation ([1]; 25 μM ATRA alone, 4 or 7 days (FIG. 2)): did not impair cellular proliferation until after day 4 | rate of cellular proliferation ([2]; ATRA at 50 μM alone, seven days, vs vehicle (FIG. 8)): decreased rates of cellular proliferation as compared to the control | inhibition of cellular proliferation ([2]; ATRA at 50 μM, 20 μM, 5 μM, three days (FIG. 5)): inhibits proliferation of medulloblastoma cells; also recorded: inhibited proliferation to varying degrees | cellular proliferation ([6]; long-term treatment with ATRA, demonstrated previously): can inhibit cellular proliferation | cellular migration and invasion ([6]; short term treatment (1-3 days) with ATRA (Joshi et al 2006)): induced cellular migration and invasion | cellular proliferation ([3]; varying concentration of ATRA (Chang et al., 2007; Gumireddy et al., 2003)): inhibits cellular proliferation

CN1CCN(C(=O)C2C(C(=O)O)[C@H]3CC[C@@H]2O3)CC1 (stereo partly shown) [Compound 100]
inhibition of cellular proliferation ([1]; 5 μM Compound 100 alone, 4 or 7 days (FIG. 2)): failed to significantly inhibit cellular proliferation | proliferation inhibition ([1]; 10 μM ATRA and 10 μM Compound 100 (FIG. 3)): exhibited high levels of proliferation inhibition | proliferation ([1]; 10 μM Compound 100 alone (FIG. 3)): proliferation was greatly reduced | synergy in combinations ([1]; 10 μM Compound 100 with 10 μM ATRA, 2.5 mM valproic acid or both (FIG. 3)): synergistically enhanced the activity of ATRA, valproic acid and valproic acid in combination with ATRA | proliferation inhibition ([1]; 2.5 mM valproic acid and 10 μM Compound 100 (FIG. 3)): exhibited high levels of proliferation inhibition | proliferation inhibition ([1]; 2.5 mM valproic acid, 10 μM ATRA and 10 μM Compound 100 (FIG. 3)): severely inhibits proliferation of neuroblastoma cells; also recorded: exhibited high levels of proliferation inhibition | inhibition of cell proliferation ([1]; Compound 100 at 1 μM and 5 μM, day 4, vs vehicle (FIG. 1)): little or no inhibition of cell proliferation | cell growth ([1]; Compound 100 at 1 μM and 5 μM, day 7, vs vehicle (FIG. 1)): enhanced cell growth | inhibition of proliferation ([1]; Compound 100 at 1, 5, 10, 20, 50 μM for 4 or 7 days (FIG. 1 legend)): inhibits proliferation of neuroblastoma cells | growth inhibition ([1]; Compound 100 at doses less than 50 μM, day 7 (FIG. 1)): escape of growth inhibition | cellular proliferation ([1]; Compound 100 at low doses): slightly stimulates cellular proliferation | inhibition of cell proliferation ([1]; Compound 100 at the three higher doses (10, 20, 50 μM), day 4 (FIG. 1)): Dose dependent inhibition | inhibition of cellular proliferation ([1]; combination of 5 μM Compound 100 and 25 μM ATRA, day 4 and day 7 (FIG. 2)): inhibits proliferation of neuroblastoma cells | inhibition of cellular proliferation ([1]; combination of 5 μM Compound 100 and 25 μM ATRA, day 4 and day 7 (FIG. 2), listed as compound 100): potentiated the extent of inhibition by ATRA | proliferation of xenograft (xenograft mass) ([4]; Compound 100 1.5 mg/kg daily intraperitoneally for 14 days, 1.5 mg/kg): inhibits the proliferation of the neuroblastoma cell line SHSY xenograft | inhibition of human cancer cells in vitro ([7]; Compound 100 in combination with trichostatin A (PCT/US2007/003095)): better then would be expected from the combination of the agents alone | inhibition of human cancer cells in vitro ([7]; Compound 100 in combination with valproic acid (PCT/US2007/003095)): better then would be expected from the combination of the agents alone | cellular proliferation ([7]; combination of ATRA with Compound 100, human glioblastoma multiforme (PCT/US2007/003095)): highly effective in preventing cellular proliferation | rate of cellular proliferation ([2]; 20 μM Compound 100, three days (FIG. 4, squares)): greatest decrease in cellular proliferation | rate of cellular proliferation ([2]; Compound 100 at 1 μM, 5 μM and 20 μM, three days, vs vehicle (FIG. 4)): inhibits proliferation of medulloblastoma cells; also recorded: decreased rates of cellular proliferation as compared to the control | proliferation of xenograft (xenograft mass) [5]: inhibits the proliferation of the medulloblastoma cell line DAOY xenograft tumors; also recorded: inhibit the proliferation of DAOY cells
